The target in one assay is FGFR2 (Homo sapiens (Human), UniProt P21802). Kind of assay: FGFR2 Biochemical Caliper Assay. The procedure: Compounds of the present invention were also tested in a FGFR2 Biochemical Caliper Assay. Compounds were prepared in 10 mM DMSO solution and serially diluted into 11 concentrations by 3-fold dilution. […] 5 uL of ATP solution (100 uM) was added to start the reaction and the plate was incubated for 90 minutes, then 70 uL of stopping buffer (0.5M EDTA) was added to terminate the reaction. Each well was analyzed using EZ reader.
Sequence of FGFR2 (P21802 22-821): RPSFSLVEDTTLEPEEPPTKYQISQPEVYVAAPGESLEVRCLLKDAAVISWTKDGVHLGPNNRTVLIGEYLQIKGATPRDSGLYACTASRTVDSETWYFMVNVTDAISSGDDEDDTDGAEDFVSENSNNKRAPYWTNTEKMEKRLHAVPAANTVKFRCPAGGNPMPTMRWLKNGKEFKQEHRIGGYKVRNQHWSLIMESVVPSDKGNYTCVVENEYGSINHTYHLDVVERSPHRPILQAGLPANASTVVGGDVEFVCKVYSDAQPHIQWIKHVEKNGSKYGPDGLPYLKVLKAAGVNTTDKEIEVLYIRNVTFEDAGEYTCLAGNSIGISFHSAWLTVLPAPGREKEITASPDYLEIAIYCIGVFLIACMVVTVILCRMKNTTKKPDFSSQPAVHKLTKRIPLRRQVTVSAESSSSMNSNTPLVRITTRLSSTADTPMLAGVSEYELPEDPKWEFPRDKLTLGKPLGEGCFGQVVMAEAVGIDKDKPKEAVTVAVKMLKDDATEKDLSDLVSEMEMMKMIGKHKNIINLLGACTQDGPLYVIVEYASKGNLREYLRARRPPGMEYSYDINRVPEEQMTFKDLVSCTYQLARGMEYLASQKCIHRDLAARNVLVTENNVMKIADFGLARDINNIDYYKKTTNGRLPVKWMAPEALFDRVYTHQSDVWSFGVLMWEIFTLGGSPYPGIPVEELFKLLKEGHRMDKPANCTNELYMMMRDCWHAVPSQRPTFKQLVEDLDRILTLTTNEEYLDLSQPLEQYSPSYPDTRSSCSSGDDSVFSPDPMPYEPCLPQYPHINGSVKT

A further assay has as its system SNU16 cells. Kind of assay: SNU16 Cancer Cell Line Proliferation Assay. The class given is cell-based. As to conditions: Homo sapiens; SNU-16 cells. The gist of the method: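 SNU16 cells were seeded, held 24 h at 37 degrees, then dosed with an 11-point 3-fold dilution series prepared from a 10 mM DMSO stock. After 96 h incubation, viability was read by CellTiter Glo luminescence.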

The IC50 is the point on the concentration scale where inhibition reaches its midpoint. The low end stands for higher potency, the high end for lower potency. On to `C=C(C)C(=O)Nc1ccc(-c2c(-c3ccc(Oc4cccc(C)n4)cc3)c3c(N)ncnc3n2CCO)cc1` [Example 91], for which the concentration for half-maximal inhibition (IC50) is under 100 nM at FGFR2 and at most 100 nM in the assay on SNU16 cells.

`C=C(C)C(=O)Nc1ccc(-c2c(-c3ccc(C(=O)N4CCCC4)cc3)c3c(N)ncnc3n2C)cc1F` [Example 215]: the half-maximal inhibitory concentration (IC50) against FGFR2 and with SNU16 cells was 250 to 1000 nM throughout.

Consider `C=CC(=O)Nc1ccc(-c2c(-c3ccc(Oc4ncccn4)c(OCC)c3)c3c(N)ncnc3n2C)cc1` [Example 51], for which the IC50 was under 100 nM at FGFR2 and at most 100 nM in the assay on SNU16 cells.

As for `C=CC(=O)N1CCC(c2c(-c3ccc(C(O)C4CC4)cc3)c3c(N)ncnc3n2C)C1` (centres unmarked) [Example 790], the IC50 was 250 to 1000 nM against FGFR2 and 1000 to 100000 nM with SNU16 cells.

Turning to `C=CC(=O)N1CCC(c2c(-c3cnn(CC(F)(F)F)c3)c3c(N)ncnc3n2C)C1` (centres unmarked) [Example 723], the IC50 on FGFR2 and with SNU16 cells was 1000 to 100000 nM each time.

Consider `C=C(C)C(=O)Nc1ccc(-c2c(-c3ccc(Oc4cccc(C)n4)c(OC)c3)c3c(N)ncnc3n2C)cc1` [Example 4], for which the half-maximal inhibitory concentration (IC50) against FGFR2 is under 100 nM; in the assay on SNU16 cells, at most 100 nM.

As to `C=C(C)C(=O)Nc1ccc(-c2c(-c3ccc(Oc4cccc(C)n4)nc3)c3c(N)ncnc3n2C)cc1` [Example 441], the concentration for half-maximal inhibition (IC50) on FGFR2 and in the assay on SNU16 cells was 250 to 1000 nM each time.

On to `C=CC(=O)Nc1ccc(-c2[nH]c3ncnc(N)c3c2-c2ccc(C(=O)N3CCCC3)cc2)cc1` [Example 786], for which the IC50 against FGFR2 was in the range of 250 to 1000 nM; with SNU16 cells, 1000 to 100000 nM.

Take `C=C(C)C(=O)N1CCC(c2c(-c3ccc(Oc4cccc(C)n4)cc3)c3c(N)ncnc3n2C)CC1` [Example 693]: the figures for the concentration for half-maximal inhibition (IC50) against FGFR2 and in the assay on SNU16 cells were 250 to 1000 nM and 1000 to 100000 nM, respectively.

Take `C=C(C)C(=O)Nc1ccc(-c2c(-c3ccc(C(=O)NCC(C)(C)COC)cc3)c3c(N)ncnc3n2C)cc1` [Example 409]: the values for the IC50 on FGFR2 and in the assay on SNU16 cells were under 100 nM and at most 100 nM, respectively.

Turning to `C=C(C)C(=O)Nc1ccc(-c2c(-c3ccc(C(=O)N(C)CC4(F)COC4)cc3)c3c(N)ncnc3n2C)cc1` [Example 411], the 50% inhibitory concentration (IC50) against FGFR2 and in the assay with SNU16 cells was 250 to 1000 nM throughout.

Consider `C=CC(=O)N1CCC(c2c(-c3ccc(N(C)C4CCOCC4)cc3)c3c(N)ncnc3n2C)C1` (centres unmarked) [Example 791], for which the IC50 at FGFR2 and in the assay with SNU16 cells was 250 to 1000 nM throughout.

For `C=C(C)C(=O)Nc1ccc(-c2c(-c3ccc(C(=O)Nc4ncccn4)cc3)c3c(N)ncnc3n2C)cc1` [Example 257], the IC50 against FGFR2 and with SNU16 cells was 250 to 1000 nM in each case.

As to `C=C(C)C(=O)Nc1ccc(-c2c(-c3cc(F)c(Oc4nccc(C)n4)cc3F)c3c(N)ncnc3n2C)cc1` [Example 546], the values for the IC50 against FGFR2 and in the assay with SNU16 cells were under 100 nM and at most 100 nM, respectively.

For `C=CC(=O)N1CC[C@@H](c2c(-c3ccc(Oc4cccc(C)n4)cc3)c3c(N)ncnc3n2C)C1` (single isomer, unassigned) [Example 711], the IC50 was under 100 nM on FGFR2 and at most 100 nM in the assay on SNU16 cells.

For the molecule `C=C(C)C(=O)Nc1ccc(-c2c(-c3cncc(N4CCOCC4)c3)c3c(N)ncnc3n2C)cc1` [Example 166], the 50% inhibitory concentration (IC50) on FGFR2 lay in the range of 1000 to 100000 nM; in the assay with SNU16 cells, 250 to 1000 nM.

`C=C(C)C(=O)Nc1ccc(-c2c(-c3ccc(C(=O)N4CCC[C@H]4C#N)cc3)c3c(N)ncnc3n2C)c(F)c1` [Example 459]: the concentration for half-maximal inhibition (IC50) was under 100 nM at FGFR2 and at most 100 nM in the assay on SNU16 cells.

For `CC#CC(=O)N1CCC(n2cc(-c3c(-c4ccc(Oc5cccc(C)n5)cc4)c4c(N)ncnc4n3C)cn2)C1` (centres unmarked) [Example 635], the half-maximal inhibitory concentration (IC50) on FGFR2 is 100 to 250 nM; in the assay with SNU16 cells, at most 100 nM.

As for `C=C(C)C(=O)Nc1ccc(-c2c(-c3ccc(C(=O)N4CCCC4)cc3OC)c3c(N)ncnc3n2C)cc1` [Example 569], the IC50 at FGFR2 and in the assay with SNU16 cells was 100 to 250 nM in each case.

On to `C[C@H](Cl)C(=O)Nc1ccc(-c2c(-c3ccc(C(=O)N4CCCC4)cc3)c3c(N)ncnc3n2C)cc1` (single isomer, unassigned) [Example 560], for which the IC50 on FGFR2 and in the assay with SNU16 cells was 100 to 250 nM each time.

In the case of `C=C(C)C(=O)Nc1ccc(-c2c(-c3ccc(Oc4ncc(F)cn4)c(F)c3)c3c(N)ncnc3n2C)cc1` [Example 116], the 50% inhibitory concentration (IC50) on FGFR2 was under 100 nM; in the assay on SNU16 cells, at most 100 nM.

Take `C=C(C)C(=O)Nc1ccc(-c2c(-c3ccc(C(=O)NC4CCCC4O)cc3)c3c(N)ncnc3n2C)cc1` (centres unmarked) [Example 308]: the figures for the IC50 against FGFR2 and in the assay with SNU16 cells were under 100 nM and 100 to 250 nM, respectively.

Take `C=CC(=O)Nc1ccc(-c2c(-c3ccc(Oc4nccc(C)n4)c(OC)c3)c3c(N)ncnc3n2C)cc1` [Example 38]: the values for the half-maximal inhibitory concentration (IC50) against FGFR2 and with SNU16 cells were under 100 nM and at most 100 nM, respectively.

Take `C=CC(=O)N1CC=C(c2c(-c3ccc(Oc4cc(C)ccn4)c(OC)c3)c3c(N)ncnc3n2C)CC1` [Example 677]: the figures for the IC50 against FGFR2 and in the assay on SNU16 cells were under 100 nM and at most 100 nM, respectively.

`C=C(CN1CCOCC1)C(=O)N1CCC(n2cc(-c3c(-c4ccc(Oc5cccc(C)n5)cc4)c4c(N)ncnc4n3C)cn2)CC1` [Example 643]: the IC50 at FGFR2 and in the assay with SNU16 cells was 250 to 1000 nM in each case.

Regarding `C=CC(=O)N1CCC(c2c(-c3cnn(C(C)C)c3)c3c(N)ncnc3n2C)C1` (centres unmarked) [Example 737], the IC50 against FGFR2 and in the assay with SNU16 cells was 1000 to 100000 nM in each case.

For `C=C(C)C(=O)Nc1ccc(-c2c(-c3ccc(-c4ncco4)nc3)c3c(N)ncnc3n2C)cc1` [Example 313], the 50% inhibitory concentration (IC50) lay within 1000 to 100000 nM against FGFR2 and 250 to 1000 nM in the assay with SNU16 cells.

For the molecule `C=C(C)C(=O)Nc1ccc(-c2c(-c3ccc(Oc4nccc(C)n4)cc3C(F)F)c3c(N)ncnc3n2C)cc1` [Example 571], the IC50 is 1000 to 100000 nM at FGFR2 and 250 to 1000 nM in the assay with SNU16 cells.

Turning to `C=CC(=O)N1CCC(c2c(-c3cnn(CC4CCN(C(C)=O)CC4)c3)c3c(N)ncnc3n2C)C1` (centres unmarked) [Example 780], the IC50 against FGFR2 and with SNU16 cells was 250 to 1000 nM each time.

For the molecule `C=C(C)C(=O)Nc1ccc(-c2c(-c3ccc(Oc4cccc(C)n4)cc3)c3c(N)ncnc3n2C)cc1C` [Example 385], the half-maximal inhibitory concentration (IC50) at FGFR2 was 100 to 250 nM; in the assay on SNU16 cells it was at most 100 nM.

As to `C=C(C)C(=O)Nc1ccc(-c2c(-c3ccc(C(=O)NCC4CCC4)cc3)c3c(N)ncnc3n2C)cc1` [Example 381], the half-inhibitory concentration (IC50) against FGFR2 is under 100 nM; in the assay with SNU16 cells it was at most 100 nM.

Take `C=CC(=O)N1CCC(c2c(-c3ccc(Oc4ccc(C)nc4)c(OC)c3)c3c(N)ncnc3n2C)C1` (centres unmarked) [Example 685]: the concentration for half-maximal inhibition (IC50) against FGFR2 and with SNU16 cells was 1000 to 100000 nM each time.

Regarding `C=CC(=O)Nc1ccc(-c2c(-c3ccc(C(=O)N4CCCC4)c(OC)c3)c3c(N)ncnc3n2C)cc1` [Example 161], the IC50 against FGFR2 is under 100 nM; in the assay with SNU16 cells, at most 100 nM.

Turning to `C=C(C)C(=O)Nc1ccc(-c2c(-c3ccc(C(=O)c4nccc(C)n4)cc3C)c3c(N)ncnc3n2C)cc1` [Example 471], the IC50 against FGFR2 and in the assay on SNU16 cells was 100 to 250 nM throughout.

For `C=CC(=O)N1CCC(c2c(-c3ccc(Cn4ccccc4=O)cc3)c3c(N)ncnc3n2C)C1` (centres unmarked) [Example 794], the IC50 against FGFR2 and in the assay with SNU16 cells was 1000 to 100000 nM in each case.

Turning to `C=C(C)C(=O)Nc1ccc(-c2c(C3=CC[C@H](Oc4cccc(C)n4)CC3)c3c(N)ncnc3n2C)cc1` (single isomer, unassigned) [Example 452], the IC50 at FGFR2 lay within 1000 to 100000 nM; with SNU16 cells, 250 to 1000 nM.

`C=C(C)C(=O)Nc1ccc(-c2c(C3=CC[C@H](Oc4ccn(C)n4)CC3)c3c(N)ncnc3n2C)cc1` (single isomer, unassigned) [Example 550]: the IC50 at FGFR2 is 100 to 250 nM; in the assay with SNU16 cells it was at most 100 nM.

`C=CC(=O)N1CCC(c2c(-c3cnn(-c4cccnc4)c3)c3c(N)ncnc3n2C)C1` (centres unmarked) [Example 778]: the IC50 is under 100 nM on FGFR2 and at most 100 nM in the assay on SNU16 cells.

Take `C=C(C)C(=O)Nc1ccc(-c2c(-c3ccc(C(=O)N(C)C)cc3)c3c(N)ncnc3n2C)cc1` [Example 152]: the concentration for half-maximal inhibition (IC50) at FGFR2 and with SNU16 cells was 250 to 1000 nM throughout.

As to `C=CC(=O)N1CCC(c2c(C3=CCN(C(C)=O)CC3(C)C)c3c(N)ncnc3n2C)C1` (centres unmarked) [Example 783], the IC50 on FGFR2 was in the range of 100 to 250 nM; in the assay on SNU16 cells it was 1000 to 100000 nM.

Turning to `C=C(C)C(=O)Nc1ccc(-c2c(-c3ccc(C(=O)N4CCCCC4)cc3)c3c(N)ncnc3n2C)cc1` [Example 141], the half-maximal inhibitory concentration (IC50) is under 100 nM against FGFR2 and at most 100 nM in the assay on SNU16 cells.

For `C=C(C)C(=O)Nc1ccc(-c2c(-c3ccc(Oc4ncc(F)cn4)cc3)c3c(N)ncnc3n2C)cc1` [Example 428], the IC50 was under 100 nM on FGFR2 and at most 100 nM with SNU16 cells.

For the molecule `C=CC(=O)Nc1ccc(-c2c(-c3ccc(Oc4ncc(NC)cn4)c(OC)c3)c3c(N)ncnc3n2C)cc1` [Example 98], the IC50 is under 100 nM at FGFR2 and at most 100 nM with SNU16 cells.

For the molecule `C=C(C)C(=O)Nc1ccc(-c2c(C3=CCC(C(=O)N4CC5CCC(C5)C4)CC3)c3c(N)ncnc3n2C)cc1` (centres unmarked) [Example 387], the results for the IC50 on FGFR2 and in the assay with SNU16 cells were 100 to 250 nM and at most 100 nM, respectively.

For `C=C(C)C(=O)Nc1ccc(-c2c(-c3ccc(C(=O)NCC4(F)COC4)cc3)c3c(N)ncnc3n2C)cc1` [Example 338], the half-maximal inhibitory concentration (IC50) on FGFR2 was under 100 nM; in the assay on SNU16 cells, at most 100 nM.

On to `C=CC(=O)Nc1c(F)cc(-c2c(-c3ccc(C(=O)N4CCCC4)cc3)c3c(N)ncnc3n2C)cc1F` [Example 219], for which the 50% inhibitory concentration (IC50) was under 100 nM against FGFR2 and at most 100 nM in the assay on SNU16 cells.

In the case of `C=CC(=O)Nc1ccc(-c2c(-c3ccc(C(=O)N4CCCC4)cc3)c3c(N)ncnc3n2C)cc1C` [Example 220], the values for the 50% inhibitory concentration (IC50) against FGFR2 and with SNU16 cells were under 100 nM and at most 100 nM, respectively.

As to `C=C(C)C(=O)Nc1ccc(-c2c(-c3ccc(Oc4nccc(C#N)n4)c(F)c3)c3c(N)ncnc3n2C)cc1` [Example 503], the half-inhibitory concentration (IC50) against FGFR2 was under 100 nM; with SNU16 cells, at most 100 nM.

As for `C=CC(=O)N1CCC(c2c(-c3ccc(NC4CCCC4)cc3)c3c(N)ncnc3n2C)C1` (centres unmarked) [Example 771], the IC50 against FGFR2 and with SNU16 cells was 1000 to 100000 nM throughout.
